Experimental data: patent US12545685B2 (Daiichi Sankyo Company, Limited, priority 2011, dated 2026)

target: T1, Mdm2/p53 binding (GST-Mdm2 / His-p53) (Homo sapiens, UniProt Q00987, L33E); assay: Mdm2/p53 binding assay (HTRF, His-p53 and GST-Mdm2); conditions: His-p53 (aa 1-132) and GST-Mdm2 (aa 25-108, L33E) 6.25 nM each; 25°C, 1 hour; values given as ranges
T1 construct: Mdm2 partial protein having Mdm2 amino acids at positions 25 to 108
How it was run: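 His-p53 (aa 1–132) and GST-Mdm2 (aa 25–108, L33E) were prepared at 6.25 nM each in the protein dilution (20 mM HEPES pH 7.4, 150 mM NaCl, 0.1% BSA). Compound in 10% DMSO buffer and XL665 anti-His/Eu anti-GST antibodies (KF buffer) were added, with 1 h at 25 °C. The 665/620 nm TR-FRET ratio gave T/C and a sigmoid-fitted IC50.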

T1 sequence (Q00987 25-108 L33E): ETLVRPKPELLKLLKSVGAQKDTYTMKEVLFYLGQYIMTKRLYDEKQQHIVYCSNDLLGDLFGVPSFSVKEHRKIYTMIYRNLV

| Compound | IC50 [nM] |
| --- | --- |
| NC(=O)[C@@H]1CC[C@@H](NC(=O)[C@@H]2NC3(CC(CF)(CF)C3)[C@@]3(C(=O)Nc4cc(Cl)ccc43)[C@H]2c2cccc(Cl)c2F)CO1 [Example 122, (3′R, 4′S,5′R)—N-[(3R, 6S)-6-carbamoyltetrahydro-2H-pyran-3-yl]-6″-chloro-4′-(3-chloro-2-fluorophenyl)-3,3-bis(fluoromethyl)-2″-oxo-1″,2″-dihydrodispiro[cyclobutane-1,2-pyrrolidine-3′,3″-indole]-5′-carboxamide] | 1 to 50 |
| CO[C@]1(CO)CC[C@@H](NC(=O)[C@@H]2NC3(CCC(C)(C)CC3)[C@@]3(C(=O)Nc4nc(Cl)ccc43)[C@H]2c2ccnc(Cl)c2F)CC1 [Example 82, (3′R, 4′S,5′R)-6″-chloro-4′-(2-chloro-3-fluoropyridin-4-yl)-N-[trans-4-(hydroxymethyl)-4-methoxycyclohexyl]-4,4-dimethyl-2″-oxo-1″,2′-dihydrodispiro[cyclohexane-1,2′-pyrrolidine-3′,3″-pyrrolo[2,3-b]pyridine]-5′-carboxamide] | 1 to 50 |
| CC1(C)CCC2(CC1)N[C@@H](C(=O)N[C@@H]1CC[C@@H](c3ncon3)OC1)[C@H](c1cccc(Cl)c1F)[C@]21C(=O)Nc2nc(Cl)ccc21 [Example 62, (3′R, 4′S,5′R)-6″-chloro-4′-(3-chloro-2-fluorophenyl)-4,4-dimethyl-N-[(3R,6S)-6-(1,2,4-oxadiazol-3-yl)tetrahydro-2H-pyran-3-yl]-2″-oxo-1″,2″-dihydrodispiro[cyclohexane-1,2′-pyrrolidine-3′,3″-pyrrolo[2,3-b]pyridine]-5′-carboxamide] | 50 to 100 |
| CO[C@@H]1C[C@@H](NC(=O)[C@@H]2NC3(CC(CF)(CF)C3)[C@@]3(C(=O)Nc4cc(Cl)ccc43)[C@H]2c2cccc(Cl)c2F)CO[C@@H]1CO [Example 129, (3′R,4′S,5′R)-6″-chloro-4′-(3-chloro-2-fluorophenyl)-3,3-bis(fluoromethyl)-N-[(3R,5R,6R)-6-(hydroxymethyl)-5-methoxytetrahydro-2H-pyran-3-yl]-2″-oxo-1″,2″-dihydrodispiro[cyclobutane-1,2′-pyrrolidine-3′,3″-indole]-5′-carboxamide] | 1 to 50 |
| CO[C@]1(CO)CC[C@@H](NC(=O)[C@@H]2NC3(CCC(C)(C)CC3)[C@@]3(C(=O)Nc4nc(Cl)ccc43)[C@H]2c2cccc(Cl)c2F)CC1 [Example 81, (3′R, 4′S,5′R)-6″-chloro-4′-(3-chloro-2-fluorophenyl)-N-[trans-4-(hydroxymethyl)-4-methoxycyclohexyl]-4,4-dimethyl-2″-oxo-1″,2″-dihydrodispiro[cyclohexane-1,2′-pyrrolidine-3′,3″-pyrrolo[2,3-b]pyridine]-5′-carboxamide] | 1 to 50 |
| CC(C)(O)[C@@H]1CC[C@@H](NC(=O)[C@@H]2NC3(CC(CF)(CF)C3)[C@@]3(C(=O)Nc4cc(Cl)ccc43)[C@H]2c2cccc(Cl)c2F)CO1 [Example 135, (3′R, 4′S,5′R)-6″-chloro-4′-(3-chloro-2-fluorophenyl)-3,3-bis(fluoromethyl)-N-[(3R,6S)-6-(1-hydroxy-1-methylethyl)tetrahydro-2H-pyran-3-yl]-2″-oxo-1″,2″-dihydrodispiro[cyclobutane-1,2′-pyrrolidine-3′,3″-indole]-5′-carboxamide] | 100 to 500 |
| CO[C@]1(CO)CC[C@H](NC(=O)[C@@H]2NC3(CCC(C)(C)CC3)[C@@]3(C(=O)Nc4nc(Cl)ccc43)[C@H]2c2ccnc(Cl)c2F)CC1 [Example 83, (3′R, 4′S,5′R)-6″-chloro-4′-(2-chloro-3-fluoropyridin-4-yl)-N-[cis-4-(hydroxymethyl)-4-methoxycyclohexyl]-4,4-dimethyl-2″-oxo-1″,2″-dihydrodispiro[cyclohexane-1,2′-pyrrolidine-3′,3″-pyrrolo[2,3-b]pyridine]-5′-carboxamide] | 1 to 50 |
| CC1(C)CCC2(CC1)N[C@@H](C(=O)N[C@H]1C[C@H](C(=O)NC3CCOCC3)C1)[C@H](c1ccnc(Cl)c1F)[C@]21C(=O)Nc2cc(Cl)ccc21 [Example 120, (3′R, 4′S,5′R)-6″-chloro-4′-(2-chloro-3-fluoropyridin-4-yl)-4,4-dimethyl-2″-oxo-N-[trans-3-(tetrahydro-2H-pyran-4-ylcarbamoyl)cyclobutyl]-1″,2″-dihydrodispiro[cyclohexane-1,2′-pyrrolidine-3′,3″-indole]-5′-carboxamide] | 1 to 50 |
| CC1(C)CCC2(CC1)N[C@@H](C(=O)N[C@H]1CC[C@](O)(CO)CC1)[C@H](c1ccnc(Cl)c1F)[C@]21C(=O)Nc2cc(Cl)ccc21 [Example 39] | 50 to 100 |
| CO[C@H]1C[C@@H](NC(=O)[C@@H]2NC3(CCC(C)(C)CC3)[C@@]3(C(=O)Nc4cc(Cl)ccc43)[C@H]2c2cccc(Cl)c2F)CO[C@@H]1CO [Example 43, (3′R, 4′S,5′R)-6″-chloro-4′-(3-chloro-2-fluorophenyl)-N-[(3R,5S,6R)-6-(hydroxymethyl)-5-methoxytetrahydro-2H-pyran-3-yl]-4,4-dimethyl-2″-oxo-1″,2″-dihydrodispiro[cyclohexane-1,2′-pyrrolidine-3′,3″-indole]-5′-carboxamide] | 100 to 500 |
| CC1(C)CCC2(CC1)N[C@@H](C(=O)N[C@@H]1CC[C@@H](c3nnco3)OC1)[C@H](c1cccc(Cl)c1F)[C@]21C(=O)Nc2nc(Cl)ccc21 [Example 52, (3′R, 4′S,5′R)-6″-chloro-4′-(3-chloro-2-fluorophenyl)-4,4-dimethyl-N-[(3R,6S)-6-(1,3,4-oxadiazol-2-yl)tetrahydro-2H-pyran-3-yl]-2″-oxo-1″,2″-dihydrodispiro[cyclohexane-1,2′-pyrrolidine-3′,3″-pyrrolo[2,3-b]pyridine]-5′-carboxamide] | 50 to 100 |
| CC1(C)CCC2(CC1)N[C@@H](C(=O)N[C@H]1CO[C@H](CO)[C@@H](O)C1)[C@H](c1cccc(Cl)c1F)[C@]21C(=O)Nc2cc(Cl)ccc21 [Example 42, (3′R, 4′S,5′R)-6″-chloro-4′-(3-chloro-2-fluorophenyl)-N-[(3R,5S,6R)-5-hydroxy-6-(hydroxymethyl)tetrahydro-2H-pyran-3-yl]-4,4-dimethyl-2″-oxo-1″,2″-dihydrodispiro[cyclohexane-1,2′-pyrrolidine-3′,3″-indole]-5′-carboxamide] | 1 to 50 |

The next lines start with the values.

| IC50 [nM] | Compound |
| --- | --- |
| 50 to 100 | COC(=O)[C@@H]1CC[C@@H](NC(=O)[C@@H]2NC3(CCC(C)(C)CC3)[C@@]3(C(=O)Nc4cc(Cl)ccc43)[C@H]2c2ccnc(Cl)c2F)CO1 [Example 173, Methyl (2S,5R)-5-({[(3′S,4′S,5′R)-6″-chloro-4′-(2-chloro-3-fluoropyridin-4-yl)-4,4-dimethyl-2″-oxo-1″,2″-dihydrodispiro[cyclohexane-1,2′-pyrrolidine-3′,3′-indole]-5′-yl]carbonyl}amino)tetrahydro-2H-pyran-2-carboxylate] |
| 50 to 100 | C[C@@H](O)[C@@H]1CC[C@@H](NC(=O)[C@@H]2NC3(CC(CF)(CF)C3)[C@@]3(C(=O)Nc4cc(Cl)ccc43)[C@H]2c2ccnc(Cl)c2F)CO1 [Example 170, (3′R, 4′S,5′R)-6″-chloro-4′-(2-chloro-3-furopyridinyl-4-yl)-3,3-bis(fluoromethyl)-N-{(3R,6S)-6-[(1R)-1-hydroxyethyl]tetrahydro-2H-pyran-3-yl}-2″-oxo-1″,2″-dihydrodispiro[cyclobutane-1,2′-pyrrolidine-3′,3′-indole]-5′-carboxamide] |
| 50 to 100 | O=C(NC1CCOCC1)[C@@H]1CC[C@@H](NC(=O)[C@@H]2NC3(CC(CF)(CF)C3)[C@@]3(C(=O)Nc4cc(Cl)ccc43)[C@H]2c2cccc(Cl)c2F)CO1 [Example 137, (3′R, 4′S,5′R)-6″-chloro-4′-(3-chloro-2-fluorophenyl)-3,3-bis(fluoromethyl)-2″-oxo-N-[(3R,6S)-6-(tetrahydro-2H-pyran-4-ylcarbamoyl)tetrahydro-2H-pyran-3-yl]-1″,2″-dihydrodispiro[cyclobutane-1,2′-pyrrolidine-3′,3″-indole]-5′-carboxamide] |
| 1 to 50 | O=C(N[C@@H]1CC[C@@H](c2nnco2)OC1)[C@@H]1NC2(CC(CF)(CF)C2)[C@@]2(C(=O)Nc3cc(Cl)ccc32)[C@H]1c1cccc(Cl)c1F [Example 136, (3′R, 4′S,5′R)-6″-chloro-4′-(3-chloro-2-fluorophenyl)-3,3-bis(fluoromethyl)-N-[(3R,6S)-6-(1,3,4-oxadiazol-2-yl)tetrahydro-2H-pyran-3-yl]-2″-oxo-1″,2″-dihydrodispiro[cyclobutane-1,2′-pyrrolidine-3′,3″-indole]-5′-carboxamide] |
| 1 to 50 | CC(O)[C@@H]1CC[C@@H](NC(=O)[C@@H]2NC3(CC(CF)(CF)C3)[C@@]3(C(=O)Nc4cc(Cl)ccc43)[C@H]2c2cccc(Cl)c2F)CO1 (single isomer, unassigned) [Example 146] |
| 1 to 50 | O=C(N[C@@H]1CC[C@@H](CO)OC1)[C@@H]1NC2(CC(CF)(CF)C2)[C@@]2(C(=O)Nc3cc(Cl)ccc32)[C@H]1c1ccc(F)c(Cl)c1F [Example 172, (3′R,4′S,5′R)-6″-chloro-4′-(3-chloro-2,4-difluorophenyl)-3,3-bis(fluoromethyl)-N-[(3R,6S)-6-(hydroxymethyl)tetrahydro-2H-pyran-3-yl]-2′-oxo-1″,2″-dihydrodispiro[cyclobutane-1,2′-pyrrolidine-3′,3″-indole]-5′-carboxamide] |
| 1 to 50 | CC1(C)CCC2(CC1)N[C@@H](C(=O)N[C@@H]1CC[C@@H](C(N)=O)OC1)[C@H](c1cccc(Cl)c1F)[C@]21C(=O)Nc2cc(Cl)ccc21 [Example 181, (3′R, 4′S,5′R)-N-[(3R, 6S)-6-carbamoyltetrahydro-2H-pyran-3-yl]-6″-chloro-4′-(3-chloro-2-fluorophenyl)-4,4-dimethyl-2″-oxo-1″,2″-dihydrodispiro[cyclohexane-1,2′-pyrrolidine-3′,3′-indole]-5′-carboxamide] |
